Reference: PubChem BioAssay AID282 (DTP/NCI, 2004)
Values joined by “and” are separate entries in the source; they are usually repeats but may differ in a detail not shown here. Identical values can stand only once. Toxic doses and inconclusive results are not listed.

System: BDF1 mice, L1210 terephthalanilide-resistant leukemia ip, survival T/C
Experiment: NCI In Vivo Anticancer Drug Screen. Data for tumor model L1210 Leukemia resistant to A Terephthalanilide; NSC 38280 (intraperitoneal) in B6D2F1 (BDF1) mice
Details: endpoint: mean survival time, higher = longer survival
Method: The antitumor activity of compounds was measured in mice bearing transplantable tumors. Survival or tumor size were measured and the results are expressed as the measurement made in the treated group (T) divided by the measurement made in the vehicle treated control group (C). The tumor model used in this assay is L1210 Leukemia resistant to A Terephthalanilide; NSC 38280 (intraperitoneal) in B6D2F1 (BDF1) mice

[1] = dose: 8.0 mg/kg/injection, schedule: Q01DX010 (ip), vehicle: saline
[2] = dose: 25.0 mg/kg/injection, schedule: Q01DX010 (ip), vehicle: saline
[3] = dose: 50.0 mg/kg/injection, schedule: Q01DX010 (ip), vehicle: saline
[4] = dose: 62.5 mg/kg/injection, schedule: Q01DX Z (ip), vehicle: carboxymethylcellulose (CMC)
[5] = dose: 100.0 mg/kg/injection, schedule: Q01DX010 (ip), vehicle: saline
[6] = dose: 200.0 mg/kg/injection, schedule: Q01DX010 (ip), vehicle: saline
[7] = dose: 2.5 mg/kg/injection, schedule: Q01DX Z (ip), vehicle: carboxymethylcellulose (CMC)
[8] = dose: 5.0 mg/kg/injection, schedule: Q01DX Z (ip), vehicle: carboxymethylcellulose (CMC)
[9] = dose: 20.0 mg/kg/injection, schedule: Q01DX Z (ip), vehicle: carboxymethylcellulose (CMC)
[10] = dose: 2.0 mg/kg/injection, schedule: Q01DX010 (ip), vehicle: other
[11] = dose: 4.0 mg/kg/injection, schedule: Q01DX010 (ip), vehicle: other
[12] = dose: 8.0 mg/kg/injection, schedule: Q01DX010 (ip), vehicle: other
[13] = dose: 25.0 mg/kg/injection, schedule: Q01DX Z (ip), vehicle: carboxymethylcellulose (CMC)
[14] = dose: 10.0 mg/kg/injection, schedule: Q01DX Z (ip), vehicle: carboxymethylcellulose (CMC)
[15] = dose: 150.0 mg/kg/injection, schedule: Q01DX Z (ip), vehicle: carboxymethylcellulose (CMC)

With `C1CN1c1nc(N2CC2)nc(N2CC2)n1` the T/C (dose: 0.13 mg/kg/injection, schedule: Q01DX010 (ip), vehicle: saline) was 108 % of control, the T/C (dose: 0.25 mg/kg/injection, schedule: Q01DX010 (ip), vehicle: saline) was 99 % of control and the T/C (dose: 0.5 mg/kg/injection, schedule: Q01DX010 (ip), vehicle: saline) was 104 % of control.

With `O=C(Nc1ccc(C2=NCCN2)cc1)c1cccc(C(=O)Nc2ccc(C3=NCCN3)cc2)c1` the T/C [1] was 94 % of control and 101 % of control, the T/C (dose: 16.0 mg/kg/injection, schedule: Q01DX010 (ip), vehicle: saline) was 105 % of control and 110 % of control and the T/C (dose: 32.0 mg/kg/injection, schedule: Q01DX010 (ip), vehicle: saline) was 106 % of control and 110 % of control. The T/C (dose: 64.0 mg/kg/injection, schedule: Q01DX010 (ip), vehicle: saline) was 120 % of control.

For `CSc1ncnc2nc[nH]c12`, the T/C [2] was 98 % of control and 100 % of control, the T/C (dose: 31.25 mg/kg/injection, schedule: Q01DX Z (ip), vehicle: carboxymethylcellulose (CMC)) was 102 % of control and the T/C [3] was 100 % of control and 102 % of control. For the same compound, the T/C [4] was 105 % of control, the T/C [5] was 102 % of control and 107 % of control and the T/C (dose: 125.0 mg/kg/injection, schedule: Q01DX Z (ip), vehicle: carboxymethylcellulose (CMC)) was 113 % of control. For the same compound, the T/C [6] was 102 % of control and 105 % of control.

With `Nc1nc(=S)c2ncn(C3OC(CO)C(O)C3O)c2[nH]1` (configuration not stated) the T/C (dose: 0.13 mg/kg/injection, schedule: Q01DX Z (ip), vehicle: carboxymethylcellulose (CMC)) was 117 % of control, the T/C (dose: 0.3 mg/kg/injection, schedule: Q01DX Z (ip), vehicle: carboxymethylcellulose (CMC)) was 120 % of control and the T/C (dose: 1.25 mg/kg/injection, schedule: Q01DX Z (ip), vehicle: carboxymethylcellulose (CMC)) was 182 % of control. For the same compound, the T/C (dose: 2.0 mg/kg/injection, schedule: Q01DX010 (ip), vehicle: saline) was 157 % of control and 179 % of control, the T/C [7] was 151 % of control and the T/C (dose: 4.0 mg/kg/injection, schedule: Q01DX010 (ip), vehicle: saline) was 86 % of control and 110 % of control. The T/C [8] was 155 % of control, the T/C [1] was 98 % of control and the T/C (dose: 15.0 mg/kg/injection, schedule: Q01DX Z (ip), vehicle: carboxymethylcellulose (CMC)) was 111 % of control. For the same compound, the T/C [9] was 102 % of control.

`O=C(Nc1ccc(C2=NCCCN2)cc1)c1ccc(C(=O)Nc2ccc(C3=NCCCN3)cc2)cc1` was tested, and the T/C (dose: 1.0 mg/kg/injection, schedule: Q01DX010 (ip), vehicle: other) was 113 % of control and 114 % of control, the T/C [10] was 116 % of control and the T/C [11] was 123 % of control and 120 % of control. The T/C [12] was 90 % of control and 95 % of control.

With `Nc1ncnc2[nH]ncc12` the T/C (dose: 1.5 mg/kg/injection, schedule: Q01DX010 (ip), vehicle: saline) was 103 % of control and 105 % of control, the T/C (dose: 3.0 mg/kg/injection, schedule: Q01DX010 (ip), vehicle: saline) was 103 % of control and 108 % of control and the T/C (dose: 6.0 mg/kg/injection, schedule: Q01DX010 (ip), vehicle: saline) was 107 % of control and 111 % of control. For the same compound, the T/C (dose: 12.0 mg/kg/injection, schedule: Q01DX010 (ip), vehicle: saline) was 102 % of control and the T/C [13] was 90 % of control.

`N[C@@H](Cc1ccc(N(CCCl)CCCl)cc1)C(=O)O` was tested, and the T/C (dose: 2.0 mg/kg/injection, schedule: Q01DX Z (ip), vehicle: carboxymethylcellulose (CMC)) was 252 % of control, the T/C (dose: 4.0 mg/kg/injection, schedule: Q01DX Z (ip), vehicle: carboxymethylcellulose (CMC)) was 155 % of control and the T/C (dose: 8.0 mg/kg/injection, schedule: Q01DX Z (ip), vehicle: carboxymethylcellulose (CMC)) was 187 % of control. The T/C (dose: 12.0 mg/kg/injection, schedule: Q01DX Z (ip), vehicle: carboxymethylcellulose (CMC)) was 169 % of control and the T/C (dose: 18.0 mg/kg/injection, schedule: Q01DX Z (ip), vehicle: carboxymethylcellulose (CMC)) was 91 % of control.

In the case of `O=C(Nc1ccc(C2=NCCCN2)cc1)c1ccc(NC(=O)c2ccc(C3=NCCCN3)cc2)cc1`, the T/C [10] is reported as 110 % of control and 112 % of control, the T/C [11] is reported as 123 % of control and the T/C [12] is reported as 102 % of control.

In the case of `CN(C)CC(=O)c1ccc(O)c(O)c1`, the T/C (dose: 134.0 mg/kg/injection, schedule: Q01DX010 (ip), vehicle: saline) is reported as 104 % of control, the T/C (dose: 135.0 mg/kg/injection, schedule: Q01DX010 (ip), vehicle: saline) is reported as 114 % of control and the T/C [6] is reported as 104 % of control and 105 % of control. For the same compound, the T/C (dose: 300.0 mg/kg/injection, schedule: Q01DX010 (ip), vehicle: saline) was 120 % of control and 97 % of control and the T/C (dose: 450.0 mg/kg/injection, schedule: Q01DX010 (ip), vehicle: saline) was 121 % of control and 110 % of control.

In the case of `O=c1c(O)cccc2cc(O)c(O)c(O)c12`, the T/C [2] is reported as 98 % of control, the T/C [3] is reported as 93 % of control and the T/C [5] is reported as 89 % of control.

In the case of `CC(=O)Nc1ccc2nc3ccc(NC(C)=O)cc3[n+](-c3ccccc3)c2c1`, the T/C [14] is reported as 108 % of control, the T/C (dose: 12.5 mg/kg/injection, schedule: Q01DX010 (ip), vehicle: saline) is reported as 107 % of control and the T/C [9] is reported as 117 % of control. For the same compound, the T/C [2] was 109 % of control and 110 % of control, the T/C [3] was 121 % of control and 104 % of control and the T/C [5] was 106 % of control and 112 % of control. For the same compound, the T/C [15] was 121 % of control, the T/C (dose: 300.0 mg/kg/injection, schedule: Q01DX Z (ip), vehicle: carboxymethylcellulose (CMC)) was 120 % of control and the T/C (dose: 400.0 mg/kg/injection, schedule: Q01DX Z (ip), vehicle: carboxymethylcellulose (CMC)) was 91 % of control.

With `CN(C)c1nc(N(C)C)nc(N(C)C)n1` the T/C (dose: 18.8 mg/kg/injection, schedule: Q01DX010 (ip), vehicle: saline) was 94 % of control and 95 % of control, the T/C (dose: 37.5 mg/kg/injection, schedule: Q01DX010 (ip), vehicle: saline) was 94 % of control and 100 % of control and the T/C (dose: 75.0 mg/kg/injection, schedule: Q01DX010 (ip), vehicle: saline) was 94 % of control and 99 % of control. For the same compound, the T/C (dose: 87.5 mg/kg/injection, schedule: Q01DX Z (ip), vehicle: other) was 110 % of control, the T/C (dose: 150.0 mg/kg/injection, schedule: Q01DX010 (ip), vehicle: saline) was 96 % of control and 99 % of control and the T/C (dose: 175.0 mg/kg/injection, schedule: Q01DX Z (ip), vehicle: other) was 119 % of control.

`S=P(N1CCOCC1)(N1CC1)N1CC1` was tested, and the T/C (dose: 1.87 mg/kg/injection, schedule: Q01DX Z (ip), vehicle: carboxymethylcellulose (CMC)) was 98 % of control and 111 % of control, the T/C (dose: 2.5 mg/kg/injection, schedule: Q01DX010 (ip), vehicle: saline) was 92 % of control and 101 % of control and the T/C (dose: 3.75 mg/kg/injection, schedule: Q01DX Z (ip), vehicle: carboxymethylcellulose (CMC)) was 107 % of control and 115 % of control. For the same compound, the T/C (dose: 5.0 mg/kg/injection, schedule: Q01DX010 (ip), vehicle: saline) was 97 % of control and 102 % of control, the T/C [8] was 98 % of control and 114 % of control and the T/C (dose: 10.0 mg/kg/injection, schedule: Q01DX010 (ip), vehicle: saline) was 99 % of control and 100 % of control. The T/C (dose: 20.0 mg/kg/injection, schedule: Q01DX010 (ip), vehicle: saline) was 101 % of control, the T/C [9] was 159 % of control and the T/C (dose: 40.0 mg/kg/injection, schedule: Q01DX Z (ip), vehicle: carboxymethylcellulose (CMC)) was 104 % of control.

`Clc1ncnc2nc[nH]c12` was tested, and the T/C (dose: 7.5 mg/kg/injection, schedule: Q01DX010 (ip), vehicle: saline) was 94 % of control and 102 % of control, the T/C (dose: 15.0 mg/kg/injection, schedule: Q01DX010 (ip), vehicle: saline) was 96 % of control and 105 % of control and the T/C (dose: 30.0 mg/kg/injection, schedule: Q01DX010 (ip), vehicle: saline) was 120 % of control and 105 % of control. For the same compound, the T/C (dose: 37.5 mg/kg/injection, schedule: Q01DX Z (ip), vehicle: carboxymethylcellulose (CMC)) was 115 % of control, the T/C (dose: 60.0 mg/kg/injection, schedule: Q01DX010 (ip), vehicle: saline) was 123 % of control and 110 % of control and the T/C (dose: 75.0 mg/kg/injection, schedule: Q01DX Z (ip), vehicle: carboxymethylcellulose (CMC)) was 114 % of control. For the same compound, the T/C [15] was 150 % of control.

For `S=c1nc[nH]c2nc[nH]c12`, the T/C [7] was 120 % of control, the T/C (dose: 7.5 mg/kg/injection, schedule: Q01DX Z (ip), vehicle: carboxymethylcellulose (CMC)) was 165 % of control and the T/C [14] was 172 % of control. The T/C (dose: 12.5 mg/kg/injection, schedule: Q01DX Z (ip), vehicle: carboxymethylcellulose (CMC)) was 156 % of control, the T/C [13] was 152 % of control and the T/C [4] was 120 % of control. The T/C (dose: 100.0 mg/kg/injection, schedule: Q01DX Z (ip), vehicle: carboxymethylcellulose (CMC)) was 107 % of control.
